Experimental data published in patent US12351656B2, “Functionalized and crosslinked polymers” (PMIDG, LLC, priority 2017, dated 2025).
Where a name gives a salt, the structure may show the parent alone.

Legend:
[1] = Bupivacaine release from FeCl3-crosslinked gels (HPLC); format: physicochemical; settings: FeCl3-crosslinked 4% (w/v) gel with bupivacaine hydrochloride monohydrate, 2% SDS in PBS pH 7.4, 37° C.
Procedure: Sodium hyaluronate (1.4 m3/kg, approx. 800 kDa) and HA derivatives comprising mercaptosuccinic acid and thiophenol, as described in Example 60 and 61, were diluted to 4% (w/v) concentrations in deionized water and mixed with bupivacaine hydrochloride monohydrate (Sigma Aldrich B5274). The polymers were crosslinked using the addition of 2% FeCl3 solution in deionized water for 1:1 linking of carboxyl groups of sodium hyaluronate and chloride of FeCl3 and pH of the gels was adjusted to 6.5-7.5 using 0.25M NaOH solution. The release study buffer applied to each sample consisted of 2% (w/v) sodium dodecyl sulfate (SDS) dissolved in Phosphate buffered saline (pH 7.4, Sigma P3813). All samples were incubated at 37° C. and sampled for testing over 96 hours. For each timepoint, 0.25 ml of the sample was combined with 5 ml MeOH and then filtered through a 0.45 μm filter prior to analyzing using HPLC with a C18 column and 30:70 phosphate buffer (pH 5.0):methanol as mobile phase at 0.6 ml/min flow rate. The chromatogram was collected using a photodiode array detector at 205 nm and the amount of bupivacaine released was calculated from integral value of peak at the retention time of 7.1 minutes based on calibration performed previously.

[2] = Vancomycin hydrochloride release from FeCl3-crosslinked gels (HPLC); format: physicochemical; settings: FeCl3-crosslinked 4% (w/v) gel, vancomycin hydrochloride 10% (w/w), PBS pH 7.4, 37° C.
Procedure: Sodium hyaluronate (1.4 m3/kg, approx. 800 kDa) and HA derivatives comprising mercaptosuccinic acid and thiophenol, as described in Example 59 and 60 were diluted to 4% (w/v) concentrations in deionized water and mixed with vancomycin hydrochloride (Sigma Aldrich PHR1732) at 10% (w/w) loading. The polymers were crosslinked using the addition of 2% FeCl3 solution (crosslinking agent) in deionized water for 1:1 linking of carboxyl groups of sodium hyaluronate and chloride of FeCl3 and pH of the gels was adjusted to 6.5-7.5 using 0.25M NaOH solution. The release study buffer applied to each sample consisted of phosphate buffered saline (pH 7.4, Sigma P3813). […] For each timepoint, 0.25 ml of the sample was combined with 5 ml H2O and then filtered through a 0.45 μm filter prior to analyzing using HPLC with a C18 column and 85:15 phosphate buffer (pH 3.0):methanol as mobile phase at 0.8 ml/min flow rate. The chromatogram was collected using a photodiode array detector at 205 nm and the amount of vancomycin hydrochloride released was calculated from integral value of peak at the retention time of 11.3 minutes based on calibration performed previously.

Row | SMILES | % Bupivacaine Released ([1]; 0 hours) [%] | % Bupivacaine Released ([1]; 1 hour) [%] | % Bupivacaine Released ([1]; 3 hours) [%] | % Bupivacaine Released ([1]; 6 hours) [%] | % Bupivacaine Released ([1]; 24 hours) [%] | % Vancomycin Hydrochloride Release ([2]; 0 hours) [%] | % Vancomycin Hydrochloride Release ([2]; 1 hour) [%] | % Vancomycin Hydrochloride Release ([2]; 3 hours) [%] | % Vancomycin Hydrochloride Release ([2]; 6 hours) [%] | % Vancomycin Hydrochloride Release ([2]; 24 hours) [%] | % Vancomycin Hydrochloride Release ([2]; 96 hours) [%]
1 | CCCCN1CCCCC1C(=O)Nc1c(C)cccc1C (centres unmarked) [Bupivacaine, bupivacaine hydrochloride monohydrate] | 0.00 | 72.54 | 70.10 | 71.43 | 83.46 | – | – | – | – | – | –
2 | CN[C@H](CC(C)C)C(=O)N[C@H]1C(=O)N[C@@H](CC(N)=O)C(=O)N[C@H]2C(=O)N[C@H]3C(=O)N[C@H](C(=O)N[C@H](C(=O)O)c4cc(O)cc(O)c4-c4cc3ccc4O)[C@H](O)c3ccc(c(Cl)c3)Oc3cc2cc(c3O[C@@H]2O[C@H](CO)[C@@H](O)[C@H](O)[C@H]2O[C@H]2C[C@](C)(N)[C@H](O)[C@H](C)O2)Oc2ccc(cc2Cl)[C@H]1O [Vancomycin, vancomycin hydrochloride] | – | – | – | – | – | 0.00 | 98.03 | 95.40 | 92.08 | 90.70 | 72.11
